In patent US20130108688A1, “Delivery of H2 Antagonists” (Trustees of Boston University, priority 2004, published 2013):
Read-outs that look alike come from different tables or passages of the source.

How the values were obtained:
neutrophils = settings: cited from earlier work
[1] = test system: P. gingivalis-induced periodontitis; settings: three doses; p<0.05
[2] = test system: P. gingivalis-induced periodontitis; settings: for overall effect on tissue destruction and inflammatory cell infiltrate: local administration, three dosages; for linear distance from the epithelium to the alveolar crest border, ratio ligated/non-ligated sites (FIG. 6A): tip, middle and base of the crest
Procedure: In total, 21 New Zealand White rabbits (male, 3.5-4.0 kg each) were used in the experiments presented herein. Three different doses of Cimetidine (0.1, 1.0 and 10 μg/mL) have been prepared in paucilamellar liposomes (NOVASOME®). The animals were distributed as follows: Group A: Ligature alone (2 rabbits); Group B: Ligature+P. gingivalis (4 rabbits); Group C: Ligature+P. gingivalis+liposome (NOVASOME®) alone; Group D: Ligature+P. gingivalis+NOVASOME® preparation comprising 0.1 μg/mL of Cimetidine (4 rabbits); Group E: Ligature+P. gingivalis+NOVASOME® preparation comprising 1.0 μg/mL of Cimetidine (4 rabbits); and Group F: Ligature+P. gingivalis+NOVASOME® preparation comprising 10 μg/mL of Cimetidine (4 rabbits). All animals were purchased from Pine Acre Farms (Berthoud, Co.). The weight of the animals was strictly controlled and all animals weighed between 3.5-4.0 kg at the time of the initial experimentation. The animals were kept in individual cages, received water ad libitum, and were fed with specialized food (chow) for at least 5 days for acclimatization by experienced and licensed laboratory technicians at the Laboratory Animal Science Center at BUMC (BUMC LASC).
Ligature placement was performed under general anesthesia using ketamine (40 mg/kg) and xylazine (5 mg/kg) injections. […] Animals in group A received ligature only while animals in groups B, C, D, E, and F received P. gingivalis in addition to ligature placement.
P. gingivalis (strain A74376) was grown as previously described. Briefly, bacteria were cultured on agar plates containing trypticase soy agar supplemented with 0.5% (w/v) yeast extract, 5% defibrinated sheep red blood cells, […], and 1 μg/mL vitamin K. Plates were incubated for 3 days at 37° C. in jars anaerobically maintained through palladium catalyzed hydrogen/carbon dioxide envelopes (GasPak Plus, BD Microbiology Systems, Sparks, Md.). Colonies were randomly selected and anaerobically cultured overnight at 37° C. in Schaedler's broth supplemented with vitamin K and hemin. Bacteria numbers were spectrophotometrically determined at 600 nm and 10^9 CFU (0.8 OD) were mixed with carboxymethylcellulose to form a thick slurry, which was applied topically to the ligated teeth. The sutures were checked at every appointment, and lost or loose sutures were replaced.
Topical application was performed in animals of Groups D, E, and F every other day for 6 weeks under inhalation anesthesia using isoflurane (4.0 MAC/2.0 MAC). In these groups, Cimetidine was applied at three different doses. Cimetidine preparations were delivered in liposomes (NOVASOME®) that served as a vehicle for the H2 receptor antagonist. In order to see if liposome application alone would have any effect on the outcome, animals in Group C received liposomes without Cimetidine (i.e., NOVASOME® alone) in addition to ligature placement and P. gingivalis.
For histological analysis, the other half of the mandible was immersed in a volume of immunocal (Decal Corporation, Tallman, N.Y.) equal to at least 10 times the size of the section; the solution was replaced every 24 hours for 72 hours. Decalcification was assessed and confirmed by serial radiographs, which were taken every other day during two weeks.
The tissue was kept in this solution for 2-3 minutes, rinsed again in flowing deionized water for at least 3 minutes and kept in formalin for at least 24 hours before embedding in paraffin. Thin sections (5 μm) were cut and sections were conventionally stained with hematoxylin and eosin (H&E) to identify the cellular composition of the inflammatory infiltrates, and one hundred seventy (170) 5 μm-sections were stained with tartrate-resistant acid phosphatase (TRAP) to detect osteoclastic activity.
The data obtained by direct measurements during morphologic assessment and by histomorphometric measurements was used in multiple statistical analyses.

H2 receptor = settings: via H2 receptor; cited from earlier work
[3] = test system: P. gingivalis and ligature-induced experimental periodontitis
immunized normal cells = settings: in vitro; optimum enhancement at lower dosage (10 μg) on first day; cited from earlier work
[4] = topical application to the oral cavity; cited from earlier work
[5] = AIDS patients; cited from earlier work
lymphocyte = settings: cited from earlier work
[6] = test system: CD8 (cytotoxic/suppressor) and CD4 (helper/inducer) lymphocytes; settings: 800 mg daily for 7 days; cited from earlier work

CN/C(=N/CCSCc1nc[nH]c1C)NC#N [Cimetidine]
superoxide (O2·-) and hydrogen peroxide (H2O2) production of neutrophils (neutrophils): reduces | percentage of bone loss as calculated by Bjorn technique (FIG. 3 lower panel) [1]: prevents the destructive effects of P. gingivalis-induced periodontitis | overall effect on tissue destruction and inflammatory cell infiltrate [2]: prevent bone loss, inflammatory cell infiltration, and connective tissue destruction | overall effect on tissue destruction and inflammatory cell infiltrate ([2]; listed as cimetidine): inhibits P. gingivalis-elicited leukocyte migration toward the site of infection | total, ligatured and ratio of ligatured/non-ligatured areas of the alveolar crest (FIG. 6B) ([2]; three doses): no significant differences between the cimetidine groups | linear distance from the epithelium to the alveolar crest border, ratio ligated/non-ligated sites (FIG. 6A) ([2]; three doses): significantly increased (p<0.05) distances compared to the Cimetidine-treated groups | linear distance from the epithelium to the alveolar crest border, ratio ligated/non-ligated sites (FIG. 6A) ([2]; three doses, listed as cimetidine): almost similar, insignificant (p>0.05) mean ratio values | bone loss and inflammatory changes, H&E stained sections (FIG. 4) ([2]; topical 0.1, 1.0 and 10 μg/mL, Groups D, E, F): prevent both bone loss and inflammatory changes | histamine-mediated increase in IL-α induced IL-6 synthesis (H2 receptor): completely reverse | preventive effect on bone loss, quantitative analysis of defleshed bone specimens (FIG. 2) ([3]; all three doses vs liposome (NOVASOME) placebo, p<0.05, ANOVA): statistically significant | gingival inflammation and bone destruction (macroscopic, FIG. 1) ([3]; topical, in NOVASOME liposomes, 0.1, 1.0 and 10 μg/mL, every other day for 6 weeks, Groups D, E, F): prevented the gingival inflammation and bone destruction in a significant and comparable way with no apparent dose-dependent effect | primary humoral antibody response (immunized normal cells): markedly influence | resolution of intra- and peri-oral warts [4]: complete resolution | clinical symptoms of disease [5]: significant improvement effect | immunomodulating effect among H2 receptor antagonists (cimetidine, ranitidine, famotidine) (lymphocyte): strongest immunomodulating effect | CD4 (helper/inducer) lymphocytes [6]: corresponding increase | CD8 (cytotoxic/suppressor) lymphocytes [6]: decrease

C/N=C(\S)NCCSCc1[nH]cnc1C [metiamide]
primary humoral antibody response (immunized normal cells): markedly influence
